Values of other authors as cited in EP3616687A2, “PREPARATION FOR THE TREATMENT AND/OR PROPHYLAXIS OF INFLAMMATORY INFECTIOUS DISEASES” (Lovtsov, Valentin Vyacheslavovich, priority 2017, dated 2018).

Settings: clinical microbiological studies

[H]/N=C(\N/C(=N/[H])NCCCCCCNC(=N)NC(=N)Nc1ccc(Cl)cc1)Nc1ccc(Cl)cc1 [Chlorhexidine]
antibacterial activity, fold higher compared to Miramistine: 8 fold
